Data from patent US12180187B2, “1-phenyl-5-azinylpyrazolyl-3-oxyalkyl acids and their use for controlling unwanted plant growth” (BAYER AKTIENGESELLSCHAFT, priority 2019, dated 2024).

Tests used:
[1] = test system: AMARE; assay: Pre-emergence action at 320 g/ha against AMARE; format: in vivo, Amaranthus retroflexus; details: visual scoring after about 3 weeks vs untreated controls
Summary of the method: (§1)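 Sow seeds, cover with soil, spray soil surface (WP/EC, 0.5% additive, 600 l/ha water), hold in greenhouse ~3 wk, then rate % activity visually against untreated controls.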

[2] = test system: LOLRI; assay: Post-emergence action against LOLRI, 1.28 kg/ha; format: in vivo, Lolium rigidum; details: dosage 1280 g/ha, visual rating about 3 weeks after treatment vs untreated controls
Summary of the method: (§2)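 Herbicidal action is estimated by eye after about three weeks under optimum greenhouse conditions, on a 0–100% scale against untreated plants. Compounds are applied post-emergence to one-leaf-stage weeds as aqueous WP or EC preparations containing 0.5% additive, sprayed at 600 L/ha.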

[3] = test system: ECHCG; assay: Pre-emergence action against ECHCG, 1280 g/ha; format: in vivo, Echinochloa crus-galli; details: visual scoring after about 3 weeks vs untreated controls, 100% = plants have died, 0% = like control plants
Summary of the method: (§3)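 Each pot was doubly sown in sandy loam and covered, then its soil surface was treated with compound suspension or emulsion containing 0.5% additive at 600 L/ha water. Plants grew in a greenhouse; effect was rated visually as percentages versus controls after about 3 weeks.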

[4] = test system: KCHSC; assay: Pre-emergence action against KCHSC, 1280 g/ha; format: in vivo, Bassia scoparia; details: scored visually after about 3 weeks vs untreated controls (100% = plants have died)
Summary of the method: as §3

[5] = test system: AMARE; assay: Post-emergence action against AMARE, 1.28 kg/ha; format: in vivo, Amaranthus retroflexus; details: dosage 1280 g/ha, visual rating about 3 weeks after treatment vs untreated controls (100% = plants died)
Summary of the method: as §2

[6] = test system: STEME; assay: Pre-emergence action against STEME, 1280 g/ha; format: in vivo, Stellaria media; details: scored visually after about 3 weeks vs untreated controls (100% = plants have died)
Summary of the method: as §3

[7] = test system: KCHSC; assay: Post-emergence action against KCHSC, 1.28 kg/ha; format: in vivo, Bassia scoparia; details: dosage 1280 g/ha, visual rating about 3 weeks after treatment vs untreated controls (100% = plants died)
Summary of the method: as §2

[8] = test system: SETVI; assay: Pre-emergence action at 320 g/ha against SETVI; format: in vivo, Setaria viridis; details: visual scoring after about 3 weeks vs untreated controls
Summary of the method: as §1

[9] = test system: POAAN; assay: Post-emergence action against POAAN, 1.28 kg/ha; format: in vivo, Poa annua; details: dosage 1280 g/ha, visual rating about 3 weeks after treatment vs untreated controls
Summary of the method: as §2

[10] = test system: DIGSA; assay: Pre-emergence action at 320 g/ha against DIGSA; format: in vivo, Digitaria sanguinalis; details: visual scoring after about 3 weeks vs untreated controls
Summary of the method: as §1

[11] = test system: VERPE; assay: Post-emergence action against VERPE, 1.28 kg/ha; format: in vivo, Veronica persica; details: dosage 1280 g/ha, visual rating about 3 weeks after treatment vs untreated controls (100% = plants died)
Summary of the method: as §2

[12] = test system: LOLRI; assay: Pre-emergence action against LOLRI, 1280 g/ha; format: in vivo, Lolium rigidum; details: visual scoring after about 3 weeks vs untreated controls, 100% = plants have died, 0% = like control plants
Summary of the method: as §3

[13] = test system: MATIN; assay: Pre-emergence action at 320 g/ha against MATIN; format: in vivo, Tripleurospermum inodorum (Matricaria inodora); details: visual scoring after about 3 weeks vs untreated controls
Summary of the method: as §1

[14] = test system: SETVI; assay: Pre-emergence action against SETVI, 1280 g/ha; format: in vivo, Setaria viridis; details: visual scoring after about 3 weeks vs untreated controls, 100% = plants have died, 0% = like control plants
Summary of the method: as §3

[15] = test system: VERPE; assay: Pre-emergence action against VERPE, 1280 g/ha; format: in vivo, Veronica persica; details: scored visually after about 3 weeks vs untreated controls (100% = plants have died)
Summary of the method: as §3

[16] = test system: LOLRI; assay: Pre-emergence action at 320 g/ha against LOLRI; format: in vivo, Lolium rigidum; details: visual scoring after about 3 weeks vs untreated controls
Summary of the method: as §1

[17] = test system: ABUTH; assay: Pre-emergence action against ABUTH, 1280 g/ha; format: in vivo, Abutilon theophrasti; details: scored visually after about 3 weeks vs untreated controls (100% = plants have died)
Summary of the method: as §3

[18] = test system: ALOMY; assay: Post-emergence action against ALOMY, 1.28 kg/ha; format: in vivo, Alopecurus myosuroides; details: dosage 1280 g/ha, visual rating about 3 weeks after treatment vs untreated controls
Summary of the method: as §2

[19] = test system: AMARE; assay: Pre-emergence action against AMARE, 1280 g/ha; format: in vivo, Amaranthus retroflexus; details: scored visually after about 3 weeks vs untreated controls (100% = plants have died)
Summary of the method: as §3

[20] = test system: POLCO; assay: Pre-emergence action at 320 g/ha against POLCO; format: in vivo, Fallopia convolvulus (Polygonum convolvulus); details: visual scoring after about 3 weeks vs untreated controls
Summary of the method: as §1

[21] = test system: ALOMY; assay: Pre-emergence action against ALOMY, 1280 g/ha; format: in vivo, Alopecurus myosuroides; details: visual scoring after about 3 weeks vs untreated controls, 100% = plants have died, 0% = like control plants
Summary of the method: as §3

[22] = test system: MATIN; assay: Post-emergence action against MATIN, 1.28 kg/ha; format: in vivo, Tripleurospermum inodorum (Matricaria inodora); details: dosage 1280 g/ha, visual rating about 3 weeks after treatment vs untreated controls (100% = plants died)
Summary of the method: as §2

[23] = test system: AVEFA; assay: Pre-emergence action at 320 g/ha against AVEFA; format: in vivo; details: visual scoring after about 3 weeks vs untreated controls
Summary of the method: as §1

[24] = test system: VIOTR; assay: Pre-emergence action at 320 g/ha against VIOTR; format: in vivo, Viola tricolor; details: dosage 320 g/ha
Summary of the method: as §1

[25] = test system: POAAN; assay: Pre-emergence action against POAAN, 1280 g/ha; format: in vivo, Poa annua; details: visual scoring after about 3 weeks vs untreated controls, 100% = plants have died, 0% = like control plants
Summary of the method: as §3

[26] = test system: STEME; assay: Post-emergence action against STEME, 1.28 kg/ha; format: in vivo, Stellaria media; details: dosage 1280 g/ha, visual rating about 3 weeks after treatment vs untreated controls (100% = plants died)
Summary of the method: as §2

[27] = test system: ALOMY; assay: Pre-emergence action at 320 g/ha against ALOMY; format: in vivo, Alopecurus myosuroides; details: scored visually after about 3 weeks vs untreated controls (100% = plants have died)
Summary of the method: as §1

[28] = test system: PHBPU; assay: Pre-emergence action at 320 g/ha against PHBPU; format: in vivo; details: visual scoring after about 3 weeks vs untreated controls
Summary of the method: as §1

[29] = test system: ABUTH; assay: Post-emergence action against ABUTH, 1.28 kg/ha; format: in vivo, Abutilon theophrasti; details: dosage 1280 g/ha, visual rating about 3 weeks after treatment vs untreated controls (100% = plants died)
Summary of the method: as §2

[30] = test system: DIGSA; assay: Post-emergence action against DIGSA, 1.28 kg/ha; format: in vivo, Digitaria sanguinalis; details: dosage 1280 g/ha, visual rating about 3 weeks after treatment vs untreated controls
Summary of the method: as §2

[31] = test system: ABUTH; assay: Pre-emergence action at 320 g/ha against ABUTH; format: in vivo, Abutilon theophrasti; details: greenhouse, scored visually after about 3 weeks vs untreated controls, 100% = plants have died, 0% = like control plants
From the text: b) Seeds of monocotyledonous and dicotyledonous weed plants and crop plants are placed in plastic or organic planting pots and covered with soil. The compounds of the invention, formulated in the form of wettable powders (WP) or as emulsion concentrates (EC), are then applied onto the surface of the covering soil as aqueous suspension or emulsion with addition of 0.5% additive at a water application rate of 600 l/ha (converted). After the treatment, the pots are placed in a greenhouse and kept under good growth conditions for the trial plants. After about 3 weeks, the effect of the preparations is scored visually in comparison with untreated controls as percentages. For example, 100% activity=the plants have died, 0% activity=like control plants. Tables 13 to 26 below show the effects of selected compounds of the general formula (I) on various harmful plants and at an application rate corresponding to 320 g/ha, which were obtained by the experimental procedure mentioned above.

[32] = test system: ECHCG; assay: Post-emergence action against ECHCG, 1.28 kg/ha; format: in vivo, Echinochloa crus-galli; details: dosage 1280 g/ha, visual rating about 3 weeks after treatment vs untreated controls
Summary of the method: as §2

[33] = test system: MATIN; assay: Pre-emergence action against MATIN, 1280 g/ha; format: in vivo, Tripleurospermum inodorum (Matricaria inodora); details: scored visually after about 3 weeks vs untreated controls (100% = plants have died)
Summary of the method: as §3

[34] = test system: VERPE; assay: Pre-emergence action at 320 g/ha against VERPE; format: in vivo, Veronica persica; details: visual scoring after about 3 weeks vs untreated controls
Summary of the method: as §1

[35] = test system: DIGSA; assay: Pre-emergence action against DIGSA, 1280 g/ha; format: in vivo, Digitaria sanguinalis; details: visual scoring after about 3 weeks vs untreated controls, 100% = plants have died, 0% = like control plants
Summary of the method: as §3

C[C@@H](Oc1nn(-c2ccccc2F)c(-c2cncnc2)c1Cl)C(=O)O [VI-018]
Pre-emergence action against AMARE in % [1]: 100% | Post-emergence action against LOLRI [2]: 90% | Pre-emergence action against ECHCG [3]: 100% | Pre-emergence action against KCHSC [4]: 100% | Post-emergence action against AMARE [5]: 90% | Pre-emergence action against STEME [6]: 100% | Post-emergence action against KCHSC [7]: 90% | Pre-emergence action against SETVI in % [8]: 100% | Post-emergence action against POAAN [9]: 100% | Pre-emergence action against DIGSA in % [10]: 100% | Post-emergence action against VERPE [11]: 100% | Pre-emergence action against LOLRI [12]: 100% | Pre-emergence action against MATIN in % [13]: 90% | Pre-emergence action against SETVI [14]: 100% | Pre-emergence action against VERPE [15]: 100% | Pre-emergence action against LOLRI in % [16]: 100% | Pre-emergence action against ABUTH [17]: 90% | Post-emergence action against ALOMY [18]: 100% | Pre-emergence action against AMARE [19]: 100% | Pre-emergence action against POLCO in % [20]: 90% | Pre-emergence action against ALOMY [21]: 100% | Post-emergence action against MATIN [22]: 100% | Pre-emergence action against AVEFA in % [23]: 80% | Pre-emergence action against VIOTR in % [24]: 90% | Pre-emergence action against POAAN [25]: 100% | Post-emergence action against STEME [26]: 90% | Pre-emergence action at 320 g/ha against ALOMY in % [27]: 100% | Pre-emergence action against PHBPU in % [28]: 90% | Post-emergence action against ABUTH [29]: 90% | Post-emergence action against DIGSA [30]: 100% | Pre-emergence action at 320 g/ha against ABUTH in % [31]: 80% | Post-emergence action against ECHCG [32]: 100% | Pre-emergence action against MATIN [33]: 100% | Pre-emergence action against VERPE in % [34]: 80% | Pre-emergence action against DIGSA [35]: 100%
